Where two headings read alike, the source gives them in different places.
Biological target: Human recombinant Histone Deacetylase 8 (HDAC8) (Homo sapiens (Human), UniProt Q9BY41)
Assay: HDAC8 Enzymatic Assay (HDAC-Glo I/II luminescence)
Assay type: biochemical
Method in brief: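 Human recombinant HDAC8 (1.5 nM final) preincubated with compound for 30 min, then reacted with 50 μM Boc-GAK(Ac)-aminoluciferin plus trypsin-containing developer for 15 min at room temperature, pH 8.0, 0.5% DMSO. Luminescence read-out; IC50 from percent control activity versus log concentration.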

[1] = class symbols, Table 14, read-out: HDAC8 IC50

Human recombinant Histone Deacetylase 8 (HDAC8), sequence (Q9BY41 whole entry): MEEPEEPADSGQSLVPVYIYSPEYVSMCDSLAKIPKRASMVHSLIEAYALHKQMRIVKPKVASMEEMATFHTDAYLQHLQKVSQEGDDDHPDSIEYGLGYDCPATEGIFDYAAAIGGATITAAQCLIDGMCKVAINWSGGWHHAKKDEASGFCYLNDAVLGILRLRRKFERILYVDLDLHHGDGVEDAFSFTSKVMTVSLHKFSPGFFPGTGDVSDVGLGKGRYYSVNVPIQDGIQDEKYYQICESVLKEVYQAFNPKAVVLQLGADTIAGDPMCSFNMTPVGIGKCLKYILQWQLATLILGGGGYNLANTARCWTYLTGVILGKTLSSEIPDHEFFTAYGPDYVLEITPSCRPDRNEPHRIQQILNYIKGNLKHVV

SMILES	IC50 [1] [nM]	IC50 (HDAC8, read-out: IC50) [nM]
O=C(NO)C(Cc1ccccc1)n1ncc2ccccc21 (centres unmarked) [Compound I-0102, N-hydroxy-2-(1H-indazol-1-yl)-3-phenylpropanamide]	> 500	–
O=C(NO)C(Cc1ccccc1)n1ncc2cc(-c3cccnc3)ccc21 (centres unmarked) [Compound I-0104, N-hydroxy-3-phenyl-2-(5-(pyridin-3-yl)-1H-indazol-1-yl)propanamide]	50 to 200	–
Cn1cc(-c2ccc3c(cnn3C(Cc3ccccc3)C(=O)NO)c2)cn1 (centres unmarked) [Compound I-0105, N-hydroxy-2-(5-(1-methyl-1H-pyrazol-4-yl)-1H-indazol-1-yl)-3-phenylpropanamide]	50 to 200	–
CN(C)C(=O)c1ccc(-c2ccc3c(cnn3C(Cc3ccccc3)C(=O)NO)c2)cc1 (centres unmarked) [Compound I-0106, 4-(1-(1-(hydroxyamino)-1-oxo-3-phenylpropan-2-yl)-1H-indazol-5-yl)-N,N-dimethylbenzamide]	200 to 500	–
N/C(=N\O)c1cccc(-c2ccc3c(cnn3C(Cc3ccccc3)C(=O)NO)c2)c1 (centres unmarked) [Compound I-0107, (Z)-N-hydroxy-2-(5-(3-(N′-hydroxy-carbamimid-oyl)phenyl)-1H-indazol-1-yl)-3-phenylpropanamide]	50 to 200	–
O=C(NO)C(Cc1ccccc1)c1cnc2cc(-c3cncnc3)ccn12 (centres unmarked) [Compound I-0112, N-hydroxy-3-phenyl-2-(7-(pyrimidin-5-yl)imidazo[1,2-a]pyridin-3-yl)propanamide]	50 to 200	–
O=C(NO)C(Cc1ccccc1)c1cnc2cc(-c3ccncc3)ccn12 (centres unmarked) [Compound I-0113, N-hydroxy-3-phenyl-2-(7-(pyridin-4-yl)imidazo[1,2-a]pyridin-3-yl)propanamide]	> 500	–
O=C(NO)C(Cc1ccccc1)n1ncc2cc(-c3ccccc3)cnc21 (centres unmarked) [Compound I-0116, N-hydroxy-3-phenyl-2-(5-phenyl-1H-pyrazolo[3,4-b]pyridin-1-yl)propanamide]	> 500	–
N#Cc1ccc(-c2cnc3c(cnn3C(Cc3ccccc3)C(=O)NO)c2)cc1 (centres unmarked) [Compound I-0117, 2-(5-(4-cyanophenyl)-1H-pyrazolo[3,4-b]pyridin-1-yl)-N-hydroxy-3-phenylpropanamide]	> 500	–
Cn1nccc1-c1cnc2c(cnn2C(Cc2ccccc2)C(=O)NO)c1 (centres unmarked) [Compound I-0119, N-hydroxy-2-(5-(1-methyl-1H-pyrazol-5-yl)-1H-pyrazolo[3,4-b]pyridin-1-yl)-3-phenylpropanamide]	200 to 500	–
Cn1cc(-c2cnc3c(cnn3C(Cc3ccccc3)C(=O)NO)c2)cn1 (centres unmarked) [Compound I-0120, N-hydroxy-2-(5-(1-methyl-1H-pyrazol-4-yl)-1H-pyrazolo[3,4-b]pyridin-1-yl)-3-phenylpropanamide]	200 to 500	–
O=C(NO)C(Cc1ccccc1)n1ncc2cc(-c3cncnc3)cnc21 (centres unmarked) [Compound I-0121, N-hydroxy-3-phenyl-2-(5-(pyrimidin-5-yl)-1H-pyrazolo[3,4-b]pyridin-1-yl)propanamide]	200 to 500	–
O=C(NO)C(Cc1ccccc1)n1cc2cc(Br)cnc2n1 (centres unmarked) [Compound I-0123, 2-(5-bromo-2H-pyrazolo[3,4-b]pyridin-2-yl)-N-hydroxy-3-phenylpropanamide]	200 to 500	–
O=C(NO)C(Cc1ccccc1)n1nc(I)c2ccnc(Cl)c21 (centres unmarked) [Compound I-0124, 2-(7-chloro-3-iodo-1H-pyrazolo[3,4-c]pyridin-1-yl)-N-hydroxy-3-phenylpropanamide]	50 to 200	–
O=C(NO)C(Cc1ccccc1)n1nc2c(Cl)nccc2c1I (centres unmarked) [Compound I-0125, 2-(7-chloro-3-iodo-2H-pyrazolo[3,4-c]pyridin-2-yl)-N-hydroxy-3-phenylpropanamide]	50 to 200	–
O=C(NO)C(Cc1ccccc1)n1nc2c(Cl)nccc2c1C#CC1CC1 (centres unmarked) [Compound I-0127, 2-[7-Chloro-3-(cyclopropylethynyl)-2H-pyrazolo[3,4-c]pyridin-2-yl]-N-hydroxy-3-phenylpropanamide]	≤ 50	5.7
N#Cc1cccc(-c2cnc3c(cnn3C(Cc3ccccc3)C(=O)NO)c2)c1 (centres unmarked) [Compound I-0130, 2-(5-(3-cyanophenyl)-1H-pyrazolo[3,4-b]pyridin-1-yl)-N-hydroxy-3-phenylpropanamide]	> 500	–
NC(=O)c1cccc(-c2cnc3c(cnn3C(Cc3ccccc3)C(=O)NO)c2)c1 (centres unmarked) [Compound I-0131, 3-(1-(1-(hydroxyamino)-1-oxo-3-phenylpropan-2-yl)-1H-pyrazolo[3,4-b]pyridin-5-yl)benzamide]	200 to 500	–

Second part, the compound after the results:

IC50 [1] [nM]	IC50 (HDAC8, read-out: IC50) [nM]	SMILES
200 to 500	–	Cc1nn(C)c(C)c1-c1ccc2c(cnn2C(Cc2ccccc2)C(=O)NO)c1 (centres unmarked) [Compound I-0103, N-hydroxy-3-phenyl-2-(5-(1,3,5-trimethyl-1H-pyrazol-4-yl)-1H-indazol-1-yl)propanamide]
200 to 500	–	Cn1cc(-c2cccc3cn(C(Cc4ccccc4)C(=O)NO)nc23)cn1 (centres unmarked) [Compound I-0109, N-hydroxy-2-(7-(1-methyl-1H-pyrazol-4-yl)-2H-indazol-2-yl)-3-phenylpropanamide]
≤ 50	–	CN(C)C(=O)c1ccc(-c2cccc3cn(C(Cc4ccccc4)C(=O)NO)nc23)cc1 (centres unmarked) [Compound I-0110, 4-(2-(1-(hydroxyamino)-1-oxo-3-phenylpropan-2-yl)-2H-indazol-7-yl)-N,N-dimethylbenzamide]
> 500	–	Cc1nn(C)c(C)c1-c1cccc2cn(C(Cc3ccccc3)C(=O)NO)nc12 (centres unmarked) [Compound I-0111, N-hydroxy-3-phenyl-2-(7-(1,3,5-trimethyl-1H-pyrazol-4-yl)-2H-indazol-2-yl)propanamide]
200 to 500	–	O=C(NO)C(Cc1ccccc1)c1cnc2cc(-c3cccnc3)ccn12 (centres unmarked) [Compound I-0114, N-hydroxy-3-phenyl-2-(7-(pyridin-3-yl)imidazo[1,2-a]pyridin-3-yl)propanamide]
200 to 500	–	Cn1nccc1-c1ccn2c(C(Cc3ccccc3)C(=O)NO)cnc2c1 (centres unmarked) [Compound I-0115, N-hydroxy-2-(7-(1-methyl-1H-pyrazol-5-yl)imidazo[1,2-a]pyridin-3-yl)-3-phenylpropanamide]
200 to 500	–	NC(=O)c1ccc(-c2cnc3c(cnn3C(Cc3ccccc3)C(=O)NO)c2)cc1 (centres unmarked) [Compound I-0118, 4-(1-(1-(hydroxyamino)-1-oxo-3-phenylpropan-2-yl)-1H-pyrazolo[3,4-b]pyridin-5-yl)benzamide]
200 to 500	–	O=C(NO)C(Cc1ccccc1)n1ncc2cc(Br)cnc21 (centres unmarked) [Compound I-0122, 2-(5-bromo-1H-pyrazolo[3,4-b]pyridin-1-yl)-N-hydroxy-3-phenylpropanamide]
50 to 200	101	O=C(NO)C(Cc1ccccc1)n1nc(C#CC2CC2)c2ccnc(Cl)c21 (centres unmarked) [Compound I-0126, 2-[7-Chloro-3-(cyclopropylethynyl)-1H-pyrazolo[3,4-c]pyridin-1-yl]-N-hydroxy-3-phenylpropanamide]
≤ 50	4.3	Cn1nccc1-c1nccc2c(C#CC3CC3)n(C(Cc3ccccc3)C(=O)NO)nc12 (centres unmarked) [Compound I-0128, 2-[3-(Cyclopropylethynyl)-7-(1-methyl-1H-pyrazol-5-yl)-2H-pyrazolo[3,4-c]pyridin-2-yl]-N-hydroxy-3-phenylpropanamide]
200 to 500	–	O=C(NO)C(Cc1ccccc1)n1cc2ccnc(Cl)c2n1 (centres unmarked) [Compound I-0129, 2-(7-chloro-2H-pyrazolo[3,4-c]pyridin-2-yl)-N-hydroxy-3-phenylpropanamide]

— patent US10723705B2, “Heterocyclic compounds and uses thereof” (Incyte Corporation, priority 2015, dated 2020)
